# What was measured:
# A549 cells [1] = assay: Cell counting (proliferation) assay in A549 cells; type: cell-based, human; conditions: A549 cells, CP alone
# Method: A549 and H2030 cells cultured in RPMI 1640 containing 5% FBS in 12 well-plates at 20% confluence were treated with Oxy210 for 6 days and then trypsinized, spun down and resuspended in fresh medium. For the Carboplatin (CP) and Oxy210 co-treatment experiments, A549 cells cultured in RPMI 1640 containing 2% FBS in 12 well-plates at 20% confluence were treated with CP at different concentrations in the presence or absence of Oxy210 for 6 days. For the TGFβ-induced drug resistance assay, A549 cells cultured in RPMI 1640 containing 2% FBS in 12 well-plates at 10% confluence were pre-treated with TGFβ1 alone or together with Oxy210 for 3 days, and then treated with 20 μM CP for 4 days. An aliquot of cell suspension was applied to a hemocytometer and the cells were then counted under a light microscope.
# Statistical analyses were performed using the StatView 5 program (SAS Institute, Cary, NC, USA). All p values were calculated using ANOVA and Fisher’s projected least significant difference (PLSD) significance test. A value of p < 0.05 was considered significant. The IC 50 dose-response curves shown in Figure 4b and Figure 7a–c were modeled using a five-parameter logistic model. This model allows for asymmetric curves and automatically estimates the mean maximum and minimum response. Based on this model, IC 50 values were estimated corresponding to the dose halfway between min and max response. Models of dose versus response and dose versus log response were also evaluated (see Supplementary Materials). The R square statistic was computed as a measure of model fit.
# Figure 7 Inhibition of NSCLC cell proliferation by Oxy210. A549 (a), (c) and H2030 (b) cells were treated with the test agents as indicated in RPMI 1640 containing 5% FBS for 5 days and then were trypsinized and counted as described in Methods and Materials section. Data from a representative experiment are reported as the mean of triplicate determinations ± SD (* p < 0.05 vs. control; ** p < 0.01 vs. control).
# [2] = system: TGFβ signaling in NIH3T3-E1 cells; assay: TGFβ target gene expression (Q-RT-PCR) in NIH3T3 cells; type: cell-based, mouse; conditions: for expression of CTGF induced by TGFβ: NIH3T3 cells, TGFβ 20 ng/mL, 48 h (Figure 4e); for TGFβ inhibitory properties: statement in Discussion
# Method: Total RNA was extracted with the RNeasy Plus Mini Kit from Qiagen (Hilden, Germany) according to the manufacturer’s instructions. One microgram of RNA was reverse-transcribed using an iScript Reverse Transcription Supermix from Bio-Rad Laboratories (Hercules, CA, USA) to make single-stranded cDNA. The cDNAs were then mixed with Qi SYBR Green Supermix (Bio-Rad) for quantitative RT-PCR assay using a Bio-Rad I-cycler IQ quantitative thermocycler. All PCR samples were prepared in triplicate wells in a 96-well plate. After 40 cycles of PCR, melt curves were examined in order to ensure primer specificity. Fold changes in gene expression were calculated using the ΔΔCt method. Primers used for mouse were as follows: Oaz1 (5′-CCACTGCTTCGCCAGAGAG-3′) and (5′-CCCGGACCCAGGTTACTA-3′), Gli1 (5′- […]-3′ and 5′- GCT GATCCAGCCTAAGGTTCTC-3′), Ptch1 (5′-CCATCGGCGACAAGAACC-3′ and 5′-[…]-3′), Thbs1 (5′-[…]-3′ and 5′-CGGGGATCAGGTTGGCATT-3′), Cryab (5′-[…]-3′ and 5′-[…]-3′), Egr2 (5′-[…]-3′ and 5′-[…]-3′), CTGF (5′-GGGCCTCTTCTGCGATTTC-3′ and 5′-[…]-3′).
# Figure 4 Inhibition of ligand-induced Hedgehog and TGFβ signaling in mouse fibroblast cells. NIH3T3 cells were pretreated for 2 h with Oxy210 or various inhibitors as indicated in DMEM containing 5% FBS. Next, cells were treated with CAPAN-1 conditioned medium (CM) in the absence or presence of oxysterols or inhibitors. After 72 h, RNA was extracted and analyzed by Q-RT-PCR for the expression of Hh target genes Gli1 and Ptch1 and normalized to Oaz1 expression (a,b). (c,e) NIH3T3 cells were treated in DMEM containing 0.1% BCS overnight and then pretreated for 2 h with the inhibitors as indicated in DMEM containing 0.1%BCS. The cells were then treated with TGFβ (20ng/mL) in the absence or presence of the compounds. After 48 h, RNA was extracted and analyzed by Q-RT-PCR for the expression of TGFβ target genes as indicated and normalized to Oaz1 expression. (d) NIH3T3 cells cultured in 24 well-plates were transfected with a Smad response element reporter (SBE-Luciferase) plasmid and a pTK-Renilla-Luciferase plasmid. 6 hrs after transfection, cells were treated with the test agents as indicated for 48 hrs. Luciferase activity was measured and normalized to the Renilla luciferase activity. Data from a representative experiment are reported as the mean of triplicate determinations ± SD (** p < 0.01 vs. CM (a,b) or TGFβ (c,d and e) treated cells; ## p < 0.01 vs. control).
# [3] = Metabolic stability in human liver microsomes; type: in vitro ADME
# [4] = Metabolic stability in mouse liver microsomes; type: in vitro ADME
# Smo = system: Smo; design: method as in PMID 24591126; conditions: cited from earlier work
# Human TGFBR1 = biological target: T1, Human TGFBR1 (Homo sapiens, UniProt P36897); assay: TGFβ receptor I kinase inhibition assay (Eurofins); type: biochemical; conditions: vs. positive controls Cdk1/2 Inhibitor III and PKR Inhibitor
# T1 construct: Human TGFBR1 (amino acid 200 to end); purchased Eurofins
# T1 sequence (P36897 200-503 limits assumed): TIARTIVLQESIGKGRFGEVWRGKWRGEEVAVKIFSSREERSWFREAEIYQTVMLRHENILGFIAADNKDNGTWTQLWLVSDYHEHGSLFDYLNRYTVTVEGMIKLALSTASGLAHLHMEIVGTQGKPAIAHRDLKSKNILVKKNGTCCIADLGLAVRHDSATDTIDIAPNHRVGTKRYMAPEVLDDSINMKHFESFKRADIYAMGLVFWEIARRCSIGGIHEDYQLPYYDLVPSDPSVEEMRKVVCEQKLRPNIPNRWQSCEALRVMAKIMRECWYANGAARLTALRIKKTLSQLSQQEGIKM
# Method: (§1) Effect of Oxy210 on inhibition of TGFβ receptors I and II kinase activity was assessed by Eurofins (Celle-L’Evescault, France). TGFBR1 (h): Human TGFBR1 (amino acid 200 to end) was incubated with 8 mM MOPS pH 7.0, 0.2 mM EDTA, 1 mM MnCl2, 2 mg/mL casein, 10 mM Magnesium acetate and […] (specific activity and concentration as required). The reaction was initiated by the addition of the Mg/ATP mix. After incubation for 40 min at room temperature, the reaction was stopped by the addition of phosphoric acid to a concentration of 0.5%. 10 μL of the reaction was then spotted onto a P30 filtermat and washed four times for 4 min in 0.425% phosphoric acid and once in methanol prior to drying and scintillation counting. TGFBR2 (h): Human TGFBR2 (amino acid 188-end) was incubated with 20 mM Tris/HCl pH 8.5, 0.2 mM EDTA, 0.33 mg/mL MBP, 10 mM Magnesium acetate and [9-33P-ATP] (specific activity and concentration as required). The reaction was initiated by the addition of the Mg/ATP mix. After incubation for 120 min at room temperature, the reaction was stopped by the addition of phosphoric acid to a concentration of 0.5%. […]
# (§2) Figure 11 Inhibition of TGFβ-induced Smad2/3 phosphorylation and transcriptional activity. […] Luciferase activity was measured and normalized to the Renilla luciferase activity. […]
# Human TGFBR2 = biological target: T2, Human TGFBR2 (Homo sapiens, UniProt P37173); assay: TGFβ receptor II kinase inhibition assay (Eurofins); type: biochemical; conditions: vs. positive controls Cdk1/2 Inhibitor III and PKR Inhibitor
# T2 construct: Human TGFBR2 (amino acid 188-end); purchased Eurofins
# T2 sequence (P37173 188-567 limits assumed): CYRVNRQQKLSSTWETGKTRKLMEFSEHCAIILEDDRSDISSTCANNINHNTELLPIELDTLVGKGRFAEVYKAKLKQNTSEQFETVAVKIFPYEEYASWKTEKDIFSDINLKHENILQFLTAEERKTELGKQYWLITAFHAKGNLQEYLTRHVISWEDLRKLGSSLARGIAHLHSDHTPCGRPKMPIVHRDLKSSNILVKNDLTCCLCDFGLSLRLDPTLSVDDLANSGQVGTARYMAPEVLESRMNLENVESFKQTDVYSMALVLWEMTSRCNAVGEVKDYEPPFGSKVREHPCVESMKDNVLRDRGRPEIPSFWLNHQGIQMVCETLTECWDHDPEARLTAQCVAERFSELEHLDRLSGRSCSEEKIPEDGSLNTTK
# Method: as §1, §2
# [5] = system: TGFβ induced activity of SBE-luciferase reporter; assay: SBE-luciferase (Smad response-element) reporter assay in NIH3T3-E1 cells; type: cell-based, mouse; conditions: 48 hrs
# Method: NIH3T3-E1 cells cultured in 24 well-plates at 90% confluence were transiently transfected with 0.1 μg of Smad response-element reporter (SBE-Luciferase) plasmid (Qiagen), or with 0.1 μg of Gli response-element reporter (pGL3b-8xGli-Luciferase) plasmid, and 10 ng of pSV40-Renilla-Luciferase plasmid (Promega, Madison, WI, USA) with or without co-transfection with 10ng of Gli1 overexpression vector, pSRα-Gli1 using a Lipofectamine LTX Plus transfection reagent, as previously described [23]. […] 6 hrs after transfection, cells were treated with test agents for 72 h. […] Twenty-four hours after transfection, cells were treated with test agents for 20 h. Then the firefly and Renilla luciferase activities were measured using a dual luciferase kit (Promega) and a GloMax-96 Microplate Luminometer (Promega) or a plate reader-SpectraMax iD3 (Molecular Devices, San Jose, CA, USA). The firefly luciferase activities were normalized to the Renilla luciferase activities.
# A549 cells [6] = system: A549 cells; design: method as in PMID 15967103; conditions: consistent with own observations; cited from earlier work
smiles,measurement,setting,value
"[NH2][Pt]1([NH2])[O]C(=O)C2(CCC2)C(=O)[O]1 [CP, Carboplatin, reference compound]","IC10 Estimate, dataset 4.1 - Fig 7c - CP",A549 cells [1]; original scale Y,0.66 µM
same,IC90,"A549 cells [1]; original scale Y, read-out: IC90 Estimate, dataset 4.1 - Fig 7c - CP",40.7 µM
same,IC50,"A549 cells [1]; ± SE, read-out: IC50 of CP",6.72 ± 0.72 µM
CS(=O)(=O)c1ccc(C(=O)Nc2ccc(Cl)c(-c3ccccn3)c2)c(Cl)c1 [GDC0449],expression of CTGF induced by TGFβ,[2],only Oxy210 robustly inhibited
"CC(C)CC[C@@H](O)[C@](C)(O)[C@H]1CC[C@H]2[C@@H]3CC=C4C[C@@H](O)CC[C@]4(C)[C@H]3CC[C@]12C [Oxy16, (2R,3R)-2-((3S,8S,9S,10R,13S,14S,17S)-3-hydroxy-10,13-dimethyl-2,3,4,7,8,9,10,11,12,13,14,15,16,17-tetradecahydro-1H-cyclopenta[a]phenanthren-17-yl)-6-methylheptane-2,3-diol, reference compound]",TGFβ inhibitory properties,[2],devoid of TGFβ inhibitory properties
same,half-life,"[3]; human, liver microsomes, read-out: HLM, Half-Life",< 15 min
same,remaining at 1 h,"[3]; read-out: HLM, % Remaining after 60 min",6%
same,remaining at 1 h,"[4]; read-out: MLM, % Remaining after 60 min",5%
same,half-life,"[4]; read-out: MLM, Half-Life",14 min
same,Smo binding affinity,Smo,lack of detectable Smo binding affinity
"C[C@]12CC[C@H](O)C[C@@H]1CC[C@@H]1[C@@H]2CC[C@@]2(C)[C@H]1CC[C@@H]2[C@](C)(O)CCc1ccc(F)cc1 [Oxy186, reference compound]",expression of CTGF induced by TGFβ,[2],only Oxy210 robustly inhibited
same,TGFβ inhibitory properties,[2],devoid of TGFβ inhibitory properties
same,inhibitory activity on TβRI in functional kinase assay,Human TGFBR1,did not display significant inhibitory activity
same,inhibitory activity on TβRII in functional kinase assay,Human TGFBR2,did not display significant inhibitory activity
"NC(=O)c1ccc(-c2nc(-c3ccc4c(c3)OCO4)c(-c3ccccn3)[nH]2)cc1 [SB431542, reference compound]",TGFβ induced activity of SBE-luciferase reporter,[5],significantly inhibited
same,effect on proliferation of A549 cells,A549 cells [6],does not lessen the proliferation of A549 cells
